# What was measured:
# Type in all cases: cell-based
# [1] = test system: MDAs; assay: invasion distances of MDAs in HD Col1 treated with GSIs; details: HD Col1, vs vehicle (0.1% DMSO)
# Source text: Therefore, this example assessed what effect GSIs would have on MDAs in HD Col1. […] FIG. 3C depicts invasion distances of MDAs in HD Col1 treated with vehicle (0.1% DMSO) or GSIs DAPT and MK0752.
# [2] = test system: CSCs; assay: phenotypic effects in CSCs (MOA controls); details: compared to ISX9 (data not shown)
# Source text: (§1) Therefore, to begin to characterize the MOA of ISX9 in CSCs, it was first determined whether ISX9 treatment of CSCs triggered Ca^2+ signaling. MDAs were transduced to express the genetically encoded Ca^2+ sensor GCamp6f and treated with vehicle, ionomycin (positive control), or ISX9 (data not shown). […] FIG. 5 depicts Ca^2+ response of MDAs to ISX9 treatment. Scale bar=250 μm.
# [3] = test system: MDA-MB-231s; assay: CD24 mRNA expression in 2D (differentiation screening); details: 200 μM, 48h, FCthreshold=2.0
# Description: FIG. 3H depicts relative CD24 mRNA expression. CD24 expression was an early indicator of response to ISX9 in 2D across several TNBC cell lines. Treatment screening of several different TNBC cell lines with ISX9 in 2D for 48h yielded four responders, as determined by CD24 mRNA expression (FIG. 3H).
# These analogs were screened for their potential to differentiate MDA-MB-231s, yielding at least one new hit, CR-1 (˜98% similarity), which induced a ˜6-fold upregulation of CD24 at a concentration of 200 μM at 48h in 2D (FIG. 6).
# [4] = test system: MDA-MB-231 cells; assay: western blot of acetylation of histones H3 and H4; details: 2D- and 3D-treated cells, 24 hours
# Source text: Also identified was the fact that a similar increase in acetylation was found in patient-derived organoid models. […] Acetylation and deactylation of histones H3 and H4 are typically orchestrated by Histone Acetyltransferases (HATs), including the several HAT subfamilies, as well as HDACs (see, e.g., Marmorstein, R. et al. Cold Spring Harb. Perspect. Biol. 6, a018762 (2014)). Not wishing to be bound by any particular theory, Isx9 may bind directly to HATs and/or HDACs in order to activate histone acetylation and drive induction of MET and/or CSC differentiation.
# [5] = test system: MDAs; assay: Ca2+ signaling with genetically encoded Ca2+ sensor GCamp6f; details: GCamp6f-expressing MDAs (data not shown)
# Source text: as §1
structure (smiles),measurement,setting,value
O=C(O)CC[C@H]1CC[C@@](c2cc(F)ccc2F)(S(=O)(=O)c2ccc(Cl)cc2)CC1 [MK0752],inhibition of the CINP / tumor cell invasion,[1],"did not inhibit the CINP, but rather slightly promoted tumor cell invasion"
"CN[C@H](CC(=O)O)C(=O)O [NMDA, N-Methyl-D-aspartate]",phenotypic effects,[2],no phenotypic effects
CC(C)NC(=O)c1cc(-c2cccs2)on1 [CR-1],upregulation of CD24,[3],~6 fold
"CC(/C=C/C(=O)NO)=C\[C@@H](C)C(=O)c1ccc(N(C)C)cc1 [TSA, reference compound]",acetylation of histones H3 and H4,[4],similarly induced H3/H4 acetylation
C[C@H](NC(=O)Cc1cc(F)cc(F)c1)C(=O)N[C@H](C(=O)OC(C)(C)C)c1ccccc1 [DAPT],inhibition of the CINP / tumor cell invasion,[1],"did not inhibit the CINP, but rather slightly promoted tumor cell invasion"
"C[C@H](CCC(=O)O)C[C@H](C)C[C@H](C)C(=O)/C=C(\O)[C@H](C)C[C@H](C)C/C=C/[C@@H](C)[C@@H](O)[C@@H](C)[C@@H](O)C[C@@H]1CC[C@@](C)([C@H]2CC[C@@](C)([C@@H](C)O)O2)O1 [ionomycin, reference compound]",Ca2+ signal,[5],observed

# From patent publication US20250362286A1, “SCREENING MODELS AND METHODS OF CANCER TREATMENT” (The Regents of the University of California, priority 2022, published 2025)
